# The source made the active and inactive calls.
# Assays:
# [1] = growth suppression of PTEN-null colon cells, dose response, cell-based, HCT116 PTEN knockout (AID 1047); assay type: functional;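 also: HCT116 colon tumor cells with PTEN knocked out; cells exposed to compound for 60 hours before readout; potency for loss of cell viability measured by luminescence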
# [2] = growth suppression of beta-catenin-knockout colon cells, dose response, cell-based, HCT116, human colon tumor (AID 1045); assay type: functional;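 also: HCT116 colon tumor cells with beta catenin knocked out; cells exposed to compound for 60 hours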
# [3] = target: Sphingosine 1-phosphate receptor 2 (Homo sapiens, UniProt O95136); test: Dose Response Cell Based Assay for Agonists of the S1P2 Receptor. [Related pubchem assays: 729, 736, 843 ]; assay type: functional
# Protein RecA = target: T1, Protein RecA (Mycobacterium tuberculosis, UniProt P9WHJ3); test: Fluorescence Cell-Free Homogeneous Dose Retest to Identify Inhibitors of RecA-Intein Splicing Activity. [Related pubchem assays (depositor defined):AID2097, AID2223, AID489010, AID492950]; assay type: functional
# T1 sequence (P9WHJ3 whole entry): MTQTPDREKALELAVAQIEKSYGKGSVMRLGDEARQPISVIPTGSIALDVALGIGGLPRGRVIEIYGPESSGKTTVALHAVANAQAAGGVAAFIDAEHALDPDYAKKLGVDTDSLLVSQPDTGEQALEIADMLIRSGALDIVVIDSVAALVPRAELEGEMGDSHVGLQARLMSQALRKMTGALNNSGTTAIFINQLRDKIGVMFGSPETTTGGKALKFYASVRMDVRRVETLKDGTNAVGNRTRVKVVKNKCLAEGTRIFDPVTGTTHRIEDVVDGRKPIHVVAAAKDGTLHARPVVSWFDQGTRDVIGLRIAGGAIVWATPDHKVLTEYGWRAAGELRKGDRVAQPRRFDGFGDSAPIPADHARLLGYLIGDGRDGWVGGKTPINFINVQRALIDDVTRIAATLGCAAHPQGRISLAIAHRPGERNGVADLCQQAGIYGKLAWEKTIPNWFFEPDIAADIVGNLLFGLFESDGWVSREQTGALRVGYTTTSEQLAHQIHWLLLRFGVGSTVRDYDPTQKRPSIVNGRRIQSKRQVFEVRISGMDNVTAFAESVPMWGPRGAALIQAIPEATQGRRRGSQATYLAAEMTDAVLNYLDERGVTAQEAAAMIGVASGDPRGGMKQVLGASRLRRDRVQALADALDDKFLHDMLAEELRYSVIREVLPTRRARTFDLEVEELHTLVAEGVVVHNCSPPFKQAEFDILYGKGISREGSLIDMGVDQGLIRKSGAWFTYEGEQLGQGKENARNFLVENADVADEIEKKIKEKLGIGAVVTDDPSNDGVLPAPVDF
# [4] = M. tuberculosis H37Rv growth inhibitors, H37Rv strain (AID 1626); assay type: functional
# [5] = inhibitors of Bluetongue virus cytopathic effect, confirmation, arbovirus, BSR cells (AID 1250); assay type: functional;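 also: protection from viral cytopathic effect measured as cell viability by ATP luminescence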
# [6] = target: FAD-linked sulfhydryl oxidase ALR (Homo sapiens, UniProt P55789); test: inhibitors of human ALR sulfhydryl oxidase, dose response, biochemical, H2O2 detection, luminescence, cherry-pick (AID 493248)
# [7] = target: T2, RNA-binding protein pos-1 (Caenorhabditis elegans, UniProt G5EF15); test: inhibitors of POS-1/mex-3 RNA binding, dose response, biochemical, fluorescence polarization (AID 1964);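 also: purified POS-1 fused to maltose binding protein made in E. coli; potency of compounds blocking POS-1 binding to fluorescent RNA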
# T2 sequence (G5EF15 whole entry): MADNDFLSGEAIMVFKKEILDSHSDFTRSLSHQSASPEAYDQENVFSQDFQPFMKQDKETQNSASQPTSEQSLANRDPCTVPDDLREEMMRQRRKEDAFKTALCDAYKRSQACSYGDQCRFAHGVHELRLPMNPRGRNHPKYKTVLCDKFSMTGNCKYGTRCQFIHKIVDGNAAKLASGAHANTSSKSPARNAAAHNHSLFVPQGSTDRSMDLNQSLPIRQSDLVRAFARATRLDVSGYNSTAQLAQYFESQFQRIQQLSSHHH
# [8] = target: T3, Zinc finger protein mex-5 (Caenorhabditis elegans, UniProt Q9XUB2); test: MEX-5/TCR-2 RNA interaction inhibitors, dose response, biochemical, C. elegans, fluorescence polarization (AID 1960)
# T3 sequence (Q9XUB2 whole entry): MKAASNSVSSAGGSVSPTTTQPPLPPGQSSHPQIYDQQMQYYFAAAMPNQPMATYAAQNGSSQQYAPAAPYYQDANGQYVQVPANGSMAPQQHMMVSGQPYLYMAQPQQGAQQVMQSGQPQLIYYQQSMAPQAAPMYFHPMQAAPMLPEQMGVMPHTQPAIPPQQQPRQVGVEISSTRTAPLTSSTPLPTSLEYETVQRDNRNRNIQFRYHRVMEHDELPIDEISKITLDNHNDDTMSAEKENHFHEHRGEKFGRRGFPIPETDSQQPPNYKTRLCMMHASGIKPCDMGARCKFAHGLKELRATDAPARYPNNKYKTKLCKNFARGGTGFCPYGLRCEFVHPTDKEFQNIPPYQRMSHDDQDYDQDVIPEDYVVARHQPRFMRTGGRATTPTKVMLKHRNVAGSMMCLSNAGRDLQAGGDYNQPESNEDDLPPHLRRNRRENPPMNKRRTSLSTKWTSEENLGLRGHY
# [9] = target: Luciferin 4-monooxygenase (Photinus pyralis, UniProt P08659); test: firefly luciferase enzyme inhibitors, dose response, biochemical, luminescence (AID 1891)
# [10] = Luminescence Cell-Based Dose Confirmation HTS to Identify Inhibitors of Platelet Dense Granule Release. [Related pubchem assays: 1663 (Primary HTS), 1678 (Summary of Project)]; assay type: functional
# [11] = NIH-3T3 fibroblast cytotoxicity, dose response, cytotoxicity control, cell-based, fluorescence, Alamar Blue, secondary assay (AID 2327); assay type: functional;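 also: NIH-3T3 mouse fibroblasts cultured with fluconazole at 8 µg/mL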
# [12] = C. albicans growth with fluconazole, confirmation, fluorescence, retest (AID 2467); assay type: functional, cell-based
# [13] = inhibitors of intracellular T. cruzi replication, confirmation, NIH3T3 host cells, beta-gal luminescence (AID 2044); assay type: functional, cell-based;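 also: intracellular parasites grown in NIH/3T3 mouse fibroblasts as host cells; luminescent beta-galactosidase reporter signal from transgenic T. cruzi replicating inside host cells; inhibitors lower the luminescence signal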
# [14] = cytotoxicity toward NIH3T3 fibroblasts, dose response, counter-screen, cell-based, ATP luminescence, mouse fibroblasts (AID 2010); assay type: functional;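 also: cells exposed to compound for about 90 hours before reading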
# Jurkat = test: antigen receptor-induced NF-kB inhibitors, dose response, Jurkat, luciferase reporter, luminescence, B- and T-cell (AID 489004); assay type: functional, cell-based; details: Homo sapiens;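 also: NF-kB luciferase reporter Jurkat cells stimulated with PMA plus ionomycin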
# [15] = cytotoxicity in HEK-293T NF-kB-Luc cells, dose response, cytotoxicity control for B/T-cell NF-kB inhibitor project, cell-based, uHTS hits (AID 489019); assay type: functional;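 also: IC50 reflects cytotoxicity as loss of cell viability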
# [16] = target: T4, Microphthalmia-associated transcription factor (Homo sapiens, UniProt O75030); test: TRPM1 promoter luciferase signal decrease, dose response, MITF inhibitor project, cell-based, SK-MEL-5, cherry-picked, set 3 (AID 493073); assay type: functional
# T4 sequence (O75030 whole entry): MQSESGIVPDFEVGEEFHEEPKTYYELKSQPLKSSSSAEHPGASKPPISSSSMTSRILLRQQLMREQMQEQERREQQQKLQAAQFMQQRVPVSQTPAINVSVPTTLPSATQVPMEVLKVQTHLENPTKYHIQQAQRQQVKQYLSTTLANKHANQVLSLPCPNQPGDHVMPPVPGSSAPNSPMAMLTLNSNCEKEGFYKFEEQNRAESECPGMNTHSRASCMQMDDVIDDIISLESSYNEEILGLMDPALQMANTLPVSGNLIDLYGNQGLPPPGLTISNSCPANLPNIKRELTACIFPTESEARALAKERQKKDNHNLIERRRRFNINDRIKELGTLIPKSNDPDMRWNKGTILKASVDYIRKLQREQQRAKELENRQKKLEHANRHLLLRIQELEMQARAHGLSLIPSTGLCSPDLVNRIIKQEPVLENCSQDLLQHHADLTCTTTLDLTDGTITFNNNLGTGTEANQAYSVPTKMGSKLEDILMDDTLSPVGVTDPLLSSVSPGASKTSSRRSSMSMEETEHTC
# INS1 = test: beta cell apoptosis inhibitors, cytokine rescue, dose response, luminescence, retest (AID 449756); assay type: functional, cell-based; details: Rattus norvegicus;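 also: cell death triggered by IL-1 beta plus TNF-alpha plus IFN-gamma mixture; protective hits raise ATP signal compared with cytokine alone wells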
# [17] = target: T5, COUP transcription factor 2 (Homo sapiens, UniProt P24468); test: Luminescence-based cell-based high throughput dose response assay to identify inhibitors of COUP-TFII (NR2F2).; assay type: functional;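 also: HEK293 cells transiently cotransfected with COUP-TFII expression vector and reporter; luciferase reporter luminescence driven by COUP-TFII from the pX2-168 reporter plasmid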
# T5 sequence (P24468 whole entry): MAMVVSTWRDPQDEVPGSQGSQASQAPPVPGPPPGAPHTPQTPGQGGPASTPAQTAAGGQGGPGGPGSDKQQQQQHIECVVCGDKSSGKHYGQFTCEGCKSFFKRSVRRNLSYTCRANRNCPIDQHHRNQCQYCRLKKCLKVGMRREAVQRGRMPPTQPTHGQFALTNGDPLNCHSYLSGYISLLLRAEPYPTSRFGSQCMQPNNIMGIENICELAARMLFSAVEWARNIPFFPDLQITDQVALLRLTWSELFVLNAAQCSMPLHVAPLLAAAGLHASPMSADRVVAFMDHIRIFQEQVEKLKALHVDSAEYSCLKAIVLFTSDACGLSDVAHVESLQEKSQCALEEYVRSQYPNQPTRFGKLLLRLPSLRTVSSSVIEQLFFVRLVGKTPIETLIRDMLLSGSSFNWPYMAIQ
# Estrogen receptor = target: T6, Estrogen receptor (Homo sapiens, UniProt P03372);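 also: potency for inhibiting coactivator peptide recruitment to the receptor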
# T6 sequence (P03372 whole entry): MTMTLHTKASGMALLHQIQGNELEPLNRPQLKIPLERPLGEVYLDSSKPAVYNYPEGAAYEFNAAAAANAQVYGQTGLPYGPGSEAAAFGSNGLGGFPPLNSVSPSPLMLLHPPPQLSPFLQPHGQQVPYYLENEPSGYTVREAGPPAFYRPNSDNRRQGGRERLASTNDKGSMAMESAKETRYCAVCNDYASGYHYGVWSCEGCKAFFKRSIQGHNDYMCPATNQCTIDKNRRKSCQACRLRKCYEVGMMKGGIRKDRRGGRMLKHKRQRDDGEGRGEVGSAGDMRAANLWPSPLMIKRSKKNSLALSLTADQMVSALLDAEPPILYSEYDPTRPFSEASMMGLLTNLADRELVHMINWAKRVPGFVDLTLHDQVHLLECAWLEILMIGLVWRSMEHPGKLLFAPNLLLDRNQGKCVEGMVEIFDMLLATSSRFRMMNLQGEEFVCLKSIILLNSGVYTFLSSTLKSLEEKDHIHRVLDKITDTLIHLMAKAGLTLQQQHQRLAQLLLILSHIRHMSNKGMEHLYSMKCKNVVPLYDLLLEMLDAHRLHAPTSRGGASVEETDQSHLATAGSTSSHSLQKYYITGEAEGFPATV
# [18] = target: T7, Heat shock factor protein 1 (Mus musculus, UniProt P38532); test: HSF1 potentiators in luciferase reporter cells, confirmation, cell-based, NIH3T3, luminescence, dose retest (AID 435004); assay type: functional;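 also: stress induced by proteasome inhibitor MG132 added 30 min after compound; luciferase reporter driven by HSF1 response element in NIH3T3 cells; actives raise luminescence as potentiators of the MG132 stress response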
# T7 sequence (P38532 whole entry): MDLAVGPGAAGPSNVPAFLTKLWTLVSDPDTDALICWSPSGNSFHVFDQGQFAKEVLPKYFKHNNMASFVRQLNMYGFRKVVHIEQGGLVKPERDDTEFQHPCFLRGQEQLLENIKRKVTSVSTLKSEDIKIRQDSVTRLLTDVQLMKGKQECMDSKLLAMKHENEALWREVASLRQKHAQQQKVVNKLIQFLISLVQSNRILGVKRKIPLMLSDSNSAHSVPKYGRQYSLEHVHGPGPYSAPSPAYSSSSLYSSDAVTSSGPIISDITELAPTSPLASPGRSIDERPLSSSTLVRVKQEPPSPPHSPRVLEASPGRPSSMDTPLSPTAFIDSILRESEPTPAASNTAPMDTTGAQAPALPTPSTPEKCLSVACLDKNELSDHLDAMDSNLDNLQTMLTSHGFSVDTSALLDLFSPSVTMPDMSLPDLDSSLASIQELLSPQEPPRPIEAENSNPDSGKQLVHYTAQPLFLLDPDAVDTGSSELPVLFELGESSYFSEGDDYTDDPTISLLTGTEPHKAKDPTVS
# Chain of Sphingosine 1-phosphate receptor 2 (O95136 whole entry): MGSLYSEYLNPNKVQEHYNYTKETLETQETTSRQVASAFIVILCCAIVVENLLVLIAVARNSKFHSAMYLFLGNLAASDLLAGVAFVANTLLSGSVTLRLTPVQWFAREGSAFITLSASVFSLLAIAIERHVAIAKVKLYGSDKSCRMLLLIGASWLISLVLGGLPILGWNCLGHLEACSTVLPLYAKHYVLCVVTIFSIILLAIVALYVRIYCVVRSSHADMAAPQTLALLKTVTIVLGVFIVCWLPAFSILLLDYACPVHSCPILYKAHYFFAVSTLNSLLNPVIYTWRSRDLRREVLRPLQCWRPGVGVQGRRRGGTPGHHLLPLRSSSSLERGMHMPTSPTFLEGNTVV
# Chain of Luciferin 4-monooxygenase (P08659 whole entry): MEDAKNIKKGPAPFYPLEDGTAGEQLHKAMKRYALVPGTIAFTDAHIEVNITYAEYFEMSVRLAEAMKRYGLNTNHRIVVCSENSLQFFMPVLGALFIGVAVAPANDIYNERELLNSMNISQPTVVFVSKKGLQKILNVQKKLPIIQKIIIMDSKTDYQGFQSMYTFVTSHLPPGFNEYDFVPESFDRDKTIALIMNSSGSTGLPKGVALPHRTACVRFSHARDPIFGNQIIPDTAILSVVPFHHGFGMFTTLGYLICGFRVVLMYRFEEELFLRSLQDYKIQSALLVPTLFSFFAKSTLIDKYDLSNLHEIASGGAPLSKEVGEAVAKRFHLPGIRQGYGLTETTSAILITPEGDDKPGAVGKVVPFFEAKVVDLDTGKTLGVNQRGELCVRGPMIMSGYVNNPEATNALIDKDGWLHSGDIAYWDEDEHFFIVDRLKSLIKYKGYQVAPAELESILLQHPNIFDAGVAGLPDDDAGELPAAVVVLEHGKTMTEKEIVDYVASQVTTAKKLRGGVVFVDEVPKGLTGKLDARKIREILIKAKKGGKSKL
# Chain of FAD-linked sulfhydryl oxidase ALR (P55789 whole entry, the tested form may be a part): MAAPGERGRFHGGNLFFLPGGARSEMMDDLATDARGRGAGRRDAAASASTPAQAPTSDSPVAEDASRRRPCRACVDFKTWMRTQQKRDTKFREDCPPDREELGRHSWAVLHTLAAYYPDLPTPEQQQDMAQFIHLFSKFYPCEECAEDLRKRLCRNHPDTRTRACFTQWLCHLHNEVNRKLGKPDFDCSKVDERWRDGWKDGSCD
compound,measurement,setting,value
CCC(C)NC(=O)c1c(N)n(Cc2ccc3c(c2)OCO3)c2nc3ccccc3nc12 (stereo unspecified),EC50,[1],15.3 µM (active)
same,EC50,[2],14.2 µM (active)
same,EC50,[3],2.41 µM (active)
same,EC50,Protein RecA,> 380 µM (inconclusive)
COc1cc(-c2cc(C(=O)Nc3nc4ccccc4s3)c3ccccc3n2)cc(OC)c1OC,IC50,[4],> 100 µM (active)
Cc1cccc(C(=O)Nc2scc(CC(C)C)c2C(=O)O)c1,IC50,[5],32.3 µM (active)
same,AC50,[6],0.016 µM (active)
CCOC(=O)/C=C/C(=O)Nc1nccs1,IC50,[4],> 100 µM (active)
CC(C)CC1=NN2C(=N)/C(=C/c3c[nH]c4ccccc34)C(=O)N=C2S1,EC50,[7],34.2 µM (inconclusive)
same,EC50,[8],47.4 µM (active)
same,IC50,[5],32.1 µM (active)
O=C1CCCC(=O)C1=CNCCc1ccccc1,EC50,[9],> 112 µM (not active)
same,EC50,[10],> 112 µM (not active)
same,EC50,[3],> 50 µM (not active)
CN(C)c1cc[n+](CC(=O)c2ccc(-c3ccccc3)cc2)cc1,EC50,[11],> 160 µM (inactive)
same,EC50,[12],2 µM (active)
same,EC50,[13],0.515 µM (active)
same,EC50,[14],> 60 µM (not active)
same,IC50,Jurkat,4.41 µM (active)
same,IC50,[15],> 80 µM (inactive)
same,AC50,[16],2.6 µM (active)
same,AC50,INS1,1.55 µM (active)
same,IC50,[17],10.2 µM (inactive)
COC(=O)c1oc2ccc(Br)cc2c1NC(=O)CCCN1C(=O)c2ccccc2C1=O,IC50,Estrogen receptor,42.3 µM (not active)
COc1ccc(/C=C/C(O)=C2/C(=O)N(C)C3(C)CC2c2ccccc2O3)cc1 (stereo unspecified),IC50,Estrogen receptor,> 50 µM (not active)
same,EC50,[1],10.7 µM (active)
same,EC50,[2],8.06 µM (active)
same,EC50,[18],> 260 µM (inactive)
COC(=O)c1ccc2c(=O)n(CC3CCCO3)c(SCC(=O)Nc3ccccc3Cl)nc2c1 (stereo unspecified),IC50,Estrogen receptor,20.9 µM (active)
COc1ccc2cc(S(=O)(=O)NCCCN3CCOCC3)ccc2c1,EC50,[3],> 50 µM (not active)
CC(=O)c1c(C)n(C)c2ccc(O)cc12,IC50,[4],> 100 µM (active)

# Source: ChEMBL document CHEMBL1201862, “PubChem BioAssay data set” (2004)
